The target in assay [1] is T1, SARS-CoV-2 PLpro (nsp3 1564–1878) (Severe acute respiratory syndrome coronavirus 2, UniProt P0DTD1). Put plainly: biochemical. The conditions noted are these: low concentration screen, read-out: % of control remaining. Details: FRET-quenched peptide (Pro3) cleavage by PLpro, 10 min pre-incubation, slope over 20 min, normalised to no-compound control.
In assay [2] the target is T1, SARS-CoV-2 PLpro (nsp3 1564–1878). Put plainly: biochemical. Details: FRET-quenched peptide (Pro3) cleavage by PLpro, 10 min pre-incubation, slope over 20 min, normalised to no-compound control. To be noted: high concentration screen, read-out: % of control remaining.

SMILES strings stand for the structures. Counter-ions that a name gives are not always drawn. Like-named read-outs stand apart in the source and are kept apart here.

Take `O[C@@H]1[C@@H](O)[C@H](OC/C=C/c2ccccc2)O[C@H](CO[C@@H]2OC[C@H](O)[C@H](O)[C@H]2O)[C@H]1O` [Rosavin]: the remaining activity at 1.25 µM in assay [1] (Well no.=5422) was 101%. In assay [2] (Well no.=5422), the remaining activity at 3.75 µM came out at 104%.

For `CN(CCOc1ccc(CC2SC(=O)NC2=O)cc1)c1ccccn1` (centres unmarked) [Rosiglitazone (Avandia)], the remaining activity at 1.25 µM in assay [1] (Well no.=4924) is 95.4%. Also, in assay [2] (Well no.=4924), the remaining activity at 3.75 µM turned out to be 89.9%.

In the case of `CN(CCOc1ccc(CC2SC(=O)NC2=O)cc1)c1ccccn1` (centres unmarked) [Rosiglitazone HCl], the remaining activity at 1.25 µM in assay [1] (Well no.=4758) came out at 102%. The remaining activity at 3.75 µM in assay [2] (Well no.=4758) stood at 97.3%.

Take `CN(CCOc1ccc(CC2SC(=O)NC2=O)cc1)c1ccccn1` (centres unmarked) [Rosiglitazone maleate]: in assay [1] (Well no.=1651), the remaining activity at 1.25 µM stood at 104%. Moreover, in assay [2] (Well no.=1651), the remaining activity at 3.75 µM was 105%.

In the case of `O=C(/C=C/c1ccc(O)c(O)c1)O[C@H](Cc1ccc(O)c(O)c1)C(=O)O` [Rosmarinic acid], the remaining activity at 1.25 µM in assay [1] (Well no.=3940) came to 102%; in assay [1] (Well no.=4516) it was 95%. For the same compound, the remaining activity at 3.75 µM is 103% in assay [2] (Well no.=3140), 99.3% in assay [2] (Well no.=3940) and 94.6% in assay [2] (Well no.=4516).

Regarding `CC(C)c1nc(N(C)S(C)(=O)=O)nc(-c2ccc(F)cc2)c1/C=C/[C@@H](O)C[C@@H](O)CC(=O)O` [Rosuvastatin Calcium], the remaining activity at 1.25 µM in assay [1] (Well no.=8240) was 96.8%. The remaining activity at 3.75 µM in assay [2] (Well no.=8240) amounted to 93.8%.

On to `C=C(C)[C@H]1Cc2c(ccc3c2O[C@@H]2COc4cc(OC)c(OC)cc4[C@@H]2C3=O)O1` [Rotenone], for which the figures for the remaining activity at 1.25 µM in assay [1] (Well no.=1494), in assay [1] (Well no.=3142) and in assay [1] (Well no.=7122) were 97.2%, 104% and 91.7%, respectively. Moreover, the remaining activity at 3.75 µM in assay [2] (Well no.=1494) worked out at 98.9%; in assay [2] (Well no.=3142), 98.6%; in assay [2] (Well no.=7122), 89.8%.

As for `CCCN(CCc1cccs1)[C@H]1CCc2c(O)cccc2C1` [Rotigotine (Hydrochloride)], in assay [1] (Well no.=8157), the remaining activity at 1.25 µM worked out at 96.4%. Also, the remaining activity at 3.75 µM in assay [2] (Well no.=8157) turned out to be 89.4%.

`CCCN(CCc1cccs1)[C@H]1CCc2c(O)cccc2C1` [Rotigotine]: the remaining activity at 1.25 µM in assay [1] (Well no.=8349) worked out at 92.3%. Also, the remaining activity at 3.75 µM in assay [2] (Well no.=8349) worked out at 88.8%.

As to `CC(=O)c1c(O)c(C)c(O)c(Cc2c(O)c3c(c(C(=O)/C=C/c4ccccc4)c2O)OC(C)(C)C=C3)c1O` [Rottlerin], the remaining activity at 1.25 µM in assay [1] (Well no.=1206) was 103%. In addition, in assay [2] (Well no.=1206), the remaining activity at 3.75 µM amounted to 102%.

Regarding `COc1cc2c(cc1OC)[C@@H]1Cc3ccc(OC)c(OC)c3CN1CC2` [Rotundine], in assay [1] (Well no.=4894), the remaining activity at 1.25 µM is 96.9%. For the same compound, in assay [2] (Well no.=4894), the remaining activity at 3.75 µM came to 94.7%.

On to `CC(=O)OCC(=O)NCCCOc1cccc(CN2CCCCC2)c1` [Roxatidine (Acetate Hydrochloride)], for which the remaining activity at 1.25 µM in assay [1] (Well no.=6701) turned out to be 102%. In assay [2] (Well no.=6701), the remaining activity at 3.75 µM is 105%.

In the case of `CC(=O)OCC(=O)NCCCOc1cccc(CN2CCCCC2)c1` [Roxatidine acetate.HCl], the remaining activity at 1.25 µM in assay [1] (Well no.=2235) came out at 97.2%. Further, the remaining activity at 3.75 µM in assay [2] (Well no.=2235) amounted to 101%.

On to `CC[C@H]1OC(=O)[C@H](C)[C@@H](O[C@H]2C[C@@](C)(OC)[C@@H](O)[C@H](C)O2)[C@H](C)[C@@H](O[C@@H]2O[C@H](C)C[C@H](N(C)C)[C@H]2O)[C@](C)(O)C[C@@H](C)/C(=N\OCOCCOC)[C@H](C)[C@@H](O)[C@]1(C)O` [Roxithromycin], for which the remaining activity at 1.25 µM in assay [1] (Well no.=2237) stood at 101%. Further, the remaining activity at 3.75 µM in assay [2] (Well no.=2237) turned out to be 102%.

Consider `C=C1C(=O)[C@]23[C@H](CC[C@@H]1[C@@H]2O)[C@]12CO[C@@]3(O)[C@H](O)[C@H]1C(C)(C)CC[C@@H]2O` [Rubescensin A], for which the remaining activity at 1.25 µM in assay [1] (Well no.=3707) worked out at 95.2%. Besides, the remaining activity at 3.75 µM in assay [2] (Well no.=3707) is 93.6%.

Take `CN1CCN(c2c(F)cc3c(=O)c(C(=O)O)cn4c3c2SCC4)CC1` [Rufloxacin]: the remaining activity at 1.25 µM in assay [1] (Well no.=2239) is 98.6%. Besides, the remaining activity at 3.75 µM in assay [2] (Well no.=2239) stood at 97.3%.

With `Cc1cncc(CN2CCC(=C3c4ccc(Cl)cc4CCc4cccnc43)CC2)c1` [Rupatadine (Fumarate)], in assay [1] (Well no.=7665), the remaining activity at 1.25 µM turned out to be 98.2%. The remaining activity at 3.75 µM in assay [2] (Well no.=7665) worked out at 102%.

`Cc1cncc(CN2CCC(=C3c4ccc(Cl)cc4CCc4cccnc43)CC2)c1` [Rupatadine Fumarate]: in assay [1] (Well no.=4925), the remaining activity at 1.25 µM was 103%. Further, the remaining activity at 3.75 µM in assay [2] (Well no.=4925) was determined as 101%.

For the compound `O=c1c2ccccc2nc2n1CCc1c-2[nH]c2ccccc12` [Rutaecarpine], the remaining activity at 1.25 µM worked out at 96.2% in assay [1] (Well no.=1396) and 100% in assay [1] (Well no.=3709). Moreover, the remaining activity at 3.75 µM was found to be 99.4% in assay [2] (Well no.=1396) and 101% in assay [2] (Well no.=3709).

As for `C[C@@H]1O[C@@H](OC[C@H]2O[C@@H](Oc3c(-c4ccc(O)c(O)c4)oc4cc(O)cc(O)c4c3=O)[C@H](O)[C@@H](O)[C@@H]2O)[C@H](O)[C@H](O)[C@H]1O` [Rutin], in assay [1] (Well no.=3711), the remaining activity at 1.25 µM was 103%. The remaining activity at 3.75 µM in assay [2] (Well no.=3711) came out at 106%.

In the case of `N#CC[C@H](C1CCCC1)n1cc(-c2ncnc3[nH]ccc23)cn1` [Ruxolitinib (INCB018424)], in assay [1] (Well no.=4805), the remaining activity at 1.25 µM was determined as 103%. In assay [2] (Well no.=4805), the remaining activity at 3.75 µM amounted to 104%.

On to `CC(C)[C@@]1(O)[C@@H](OC(=O)c2ccc[nH]2)[C@@]2(O)[C@@]3(C)C[C@]4(O)O[C@@]5([C@H](O)[C@@H](C)CC[C@]35O)[C@@]2(O)[C@@]14C` [Ryanodine], for which the remaining activity at 1.25 µM in assay [1] (Well no.=3583) was found to be 104%. The remaining activity at 3.75 µM in assay [2] (Well no.=3583) is 105%.

`Cc1ccc(NC2=CC(=O)c3sc(C)nc3C2=O)cc1` [Ryuvidine - 2-Methyl-5-[(4-methylphenyl)amino]-4,7-benzothiazoledione]: the remaining activity at 1.25 µM in assay [1] (Well no.=2584) is 86.3%. Further, in assay [2] (Well no.=2584), the remaining activity at 3.75 µM came to 85%.

As for `Cc1c(-c2c(-c3ccc(F)o3)sc3ncnc(O[C@H](Cc4ccccc4OCc4ccnn4CC(F)(F)F)C(=O)O)c23)ccc(OCCN2CCN(C)CC2)c1Cl` [S63845], in assay [1] (Well no.=7208), the remaining activity at 1.25 µM came out at 92.6%. For the same compound, the remaining activity at 3.75 µM in assay [2] (Well no.=7208) is 88.1%.

Take `CC(C)Cc1ccc([C@H](C)C(=O)O)cc1` [S(+)-Ibuprofen]: the remaining activity at 1.25 µM in assay [1] (Well no.=825) worked out at 103%. In assay [2] (Well no.=825), the remaining activity at 3.75 µM was 105%.

`CC(C)NCC(O)c1ccc(O)c(O)c1` (stereo not drawn) [S(+)-Isoproterenol (+)-bitartrate]: the remaining activity at 1.25 µM in assay [1] (Well no.=823) was found to be 102%. Moreover, the remaining activity at 3.75 µM in assay [2] (Well no.=823) worked out at 105%.

As for `CCCN1CCO[C@@H]2c3cc(O)ccc3OC[C@H]21` [S(+)-PD 128,907 hydrochloride], in assay [1] (Well no.=1265), the remaining activity at 1.25 µM amounted to 102%. In addition, in assay [2] (Well no.=1265), the remaining activity at 3.75 µM is 104%.

As to `CCN1CCC[C@H]1CNC(=O)c1c(O)c(Cl)cc(Cl)c1OC` [S(+)-Raclopride L-tartrate], the remaining activity at 1.25 µM in assay [1] (Well no.=1354) came to 104%. Also, the remaining activity at 3.75 µM in assay [2] (Well no.=1354) is 103%.

The values are drawn from PMC8286840, “Identifying SARS-CoV-2 antiviral compounds by screening for small molecule inhibitors of Nsp3 papain-like protease” (Biochemical Journal, 2021).
